Results taken from patent US9018371B2, “Adenosine derivatives, method for the synthesis thereof, and the pharmaceutical compositions for the prevention and treatment of the inflammatory diseases containing the same as an active ingredient” (FM Therapeutics Co., Ltd., priority 2007, dated 2015).

What was measured:
[1] = test system: TPA-induced inflammation of the mouse ear; assay: Anti-inflammatory activity, TPA-induced mouse ear inflammation; type: in vivo, ICR mice; settings: TPA-treated ear; for anti-inflammatory activity relative to Examples 2 to 4, on the basis of inhibition percentage: 0.5% in acetone, ICR mice (FIG. 3); for percentage of inflammation inhibition: ICR mice, 24 hrs after TPA
Procedure: The adenosine derivatives of the present invention were examined for anti-inflammatory activity in the following animal test. Seven-week-old male ICR mice were treated with TPA (12-O-tetradecanoylphorbol 13-acetate, 20 μl) in the right ear. […] Hydrocortisone was used at the same concentration as a control.
6 hrs after treatment with TPA, the mice were secondarily treated with the adenosine derivatives of the present invention. 24 hrs after TPA treatment, test animals were euthanized using a cervical dislocation method. Samples were obtained from the right ear using a 6 mm diameter punch. The activity was observed by measuring the ear sample using a microbalance. Percentages of inhibition were calculated using the following Equation 1. The compositions and amounts used in these experiments are summarized in Tables 2 to 5 and the anti-inflammatory activities thereof are shown in FIGS. 2 to 5.

[2] = molecular target: human A3 adenosine receptor (hA3 AR) (Homo sapiens (Human), UniProt P0DMS8); assay: Binding affinity for human A3 adenosine receptor ([125I]AB-MECA, CHO cells); settings: for Ki: nM ± SEM, [125I]AB-MECA, CHO cells
Chain of human A3 adenosine receptor (hA3 AR) (P0DMS8 whole entry): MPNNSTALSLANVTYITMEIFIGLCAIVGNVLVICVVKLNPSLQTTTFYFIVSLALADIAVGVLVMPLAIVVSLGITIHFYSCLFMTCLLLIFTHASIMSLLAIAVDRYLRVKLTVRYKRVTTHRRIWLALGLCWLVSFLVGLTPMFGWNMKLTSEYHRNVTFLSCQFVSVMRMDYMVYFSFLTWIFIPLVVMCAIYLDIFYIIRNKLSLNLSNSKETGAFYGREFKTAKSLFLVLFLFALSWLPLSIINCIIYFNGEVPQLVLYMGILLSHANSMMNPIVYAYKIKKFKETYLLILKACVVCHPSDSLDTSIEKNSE

[3] = Toxicity assay in animals (abdominal administration, 24 hrs observation); settings: 20 mg/kg, 10 mg/kg and 1 mg/kg abdominally, observation for 24 hrs
[4] = molecular target: human A3 adenosine receptor (Homo sapiens (Human), UniProt P0DMS8); assay: Antagonism of Cl-IB-MECA and cAMP inhibition in CHO cells expressing human A3 adenosine receptor; type: cell-based; settings: various concentrations
Chain of human A3 adenosine receptor (P0DMS8 whole entry): as above

[5] = molecular target: human A2B adenosine receptor (Homo sapiens (Human), UniProt P29275); assay: Agonist or antagonist activity on human A2B adenosine receptor
Chain of human A2B adenosine receptor (P29275 whole entry): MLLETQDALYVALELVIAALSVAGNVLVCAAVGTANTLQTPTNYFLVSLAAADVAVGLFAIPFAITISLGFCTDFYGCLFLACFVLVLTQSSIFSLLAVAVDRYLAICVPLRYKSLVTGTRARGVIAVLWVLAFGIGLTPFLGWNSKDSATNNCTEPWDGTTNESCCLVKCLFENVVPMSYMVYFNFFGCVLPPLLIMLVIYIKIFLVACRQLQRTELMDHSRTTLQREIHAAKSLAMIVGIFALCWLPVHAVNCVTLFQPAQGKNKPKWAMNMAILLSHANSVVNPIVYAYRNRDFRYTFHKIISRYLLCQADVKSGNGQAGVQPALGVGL

[6] = molecular target: human A2A adenosine receptor (hA2A) (Homo sapiens (Human), UniProt P29274); assay: Binding affinity for human A2A adenosine receptor ([3H]CGS-21680, HEK 293 cell); settings: nM ± SEM
Chain of human A2A adenosine receptor (hA2A) (P29274 whole entry): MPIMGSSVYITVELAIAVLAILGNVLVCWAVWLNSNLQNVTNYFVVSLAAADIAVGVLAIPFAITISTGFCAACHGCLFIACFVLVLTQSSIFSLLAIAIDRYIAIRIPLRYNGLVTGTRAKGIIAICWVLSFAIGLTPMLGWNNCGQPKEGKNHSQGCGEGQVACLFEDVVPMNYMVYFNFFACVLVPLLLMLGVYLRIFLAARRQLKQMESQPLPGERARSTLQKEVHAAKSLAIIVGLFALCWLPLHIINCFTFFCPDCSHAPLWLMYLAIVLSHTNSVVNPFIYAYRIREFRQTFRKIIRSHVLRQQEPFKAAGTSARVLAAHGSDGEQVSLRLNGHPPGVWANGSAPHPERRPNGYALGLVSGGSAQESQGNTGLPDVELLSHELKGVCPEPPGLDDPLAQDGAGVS

[7] = molecular target: human A1 adenosine receptor (hA1) (Homo sapiens (Human), UniProt P30542); assay: Binding affinity for human A1 adenosine receptor ([3H]CCPA, CHO cells); settings: nM ± SEM
Chain of human A1 adenosine receptor (hA1) (P30542 whole entry): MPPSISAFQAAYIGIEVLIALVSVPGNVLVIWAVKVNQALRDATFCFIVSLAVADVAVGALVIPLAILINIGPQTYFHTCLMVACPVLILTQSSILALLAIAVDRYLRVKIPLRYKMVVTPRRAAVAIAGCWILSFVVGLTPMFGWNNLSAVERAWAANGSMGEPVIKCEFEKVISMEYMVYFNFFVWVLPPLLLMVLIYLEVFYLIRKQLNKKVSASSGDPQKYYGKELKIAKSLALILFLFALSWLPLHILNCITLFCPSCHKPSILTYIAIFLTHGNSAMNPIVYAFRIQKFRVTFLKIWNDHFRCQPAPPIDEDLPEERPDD

[8] = molecular target: rat A3 adenosine receptor (Rattus norvegicus (Rat), UniProt P28647); assay: Binding affinity for rat A3 adenosine receptor expressed in CHO cells
Chain of rat A3 adenosine receptor (P28647 whole entry): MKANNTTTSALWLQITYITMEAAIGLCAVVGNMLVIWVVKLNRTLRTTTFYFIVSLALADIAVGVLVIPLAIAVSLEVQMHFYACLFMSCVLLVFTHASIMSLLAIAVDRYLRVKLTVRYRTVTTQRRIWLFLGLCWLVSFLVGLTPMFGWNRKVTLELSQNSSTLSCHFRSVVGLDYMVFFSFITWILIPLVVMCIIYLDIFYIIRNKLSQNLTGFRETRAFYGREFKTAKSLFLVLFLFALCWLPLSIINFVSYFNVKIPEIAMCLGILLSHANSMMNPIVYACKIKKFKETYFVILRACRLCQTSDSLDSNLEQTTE

[9] = 0.5% in distilled water:acetone (1:4)

Compound	melting point	Ki [2]	other results
OC1CS[C@@H](n2cnc3c(NCc4cccc(Cl)c4)nc(Cl)nc32)C1O (stereo in doubt) [Example 2, (2R,3R,4S)-2-(2-Chloro-6-(3-chlorobenzylamino)-9H-purin-9-yl)tetrahydrothiophen-3,4-diol]	–	–	mortality [3]: None of the members of the three groups died; weight gain or feed intake versus control group [3]: No difference in weight gain or feed intake
OC1CS[C@@H](n2cnc3c(NCc4cccc(I)c4)nc(Cl)nc32)C1O (stereo in doubt) [Example 4, (2R,3R,4S)-2-(2-Chloro-6-(3-iodobenzylamino)-9H-purin-9-yl)tetrahydrothiophen-3,4-diol]	–	–	inhibition of the agonist effect of Cl-IB-MECA (in words) [4]: inhibited in a dose-dependent manner; agonist or antagonist on human A2B adenosine receptor (in words) [5]: not observed as an agonist or antagonist
OC1CS[C@@H](n2cnc3c(NCc4ccccc4Cl)nc(Cl)nc32)C1O (stereo in doubt) [Example 5, (2R,3R,4S)-2-(2-Chloro-6-(2-chlorobenzylamino)-9H-purin-9-yl)tetrahydrothiophen-3,4-diol]	198.7 to 199.7 °C	25.8 ± 6.3 nM	percentage of inflammation inhibition [1, 9]: 17%; Ki [6]: 1600 ± 135 nM
COc1ccccc1CNc1nc(Cl)nc2c1ncn2[C@@H]1SCC(O)C1O (stereo in doubt) [Example 7, (2R,3R,4S)-2-(2-chloro-6-(2-methoxybenzylamino)-9H-purin-9-yl)tetrahydrothiophen-3,4-diol]	188 °C	–	percentage of inflammation inhibition [1, 9]: 34%
O=C(O)c1cccc(CNc2nc(Cl)nc3c2ncn3[C@@H]2SCC(O)C2O)c1 (stereo in doubt) [Example 9, 3-((2-chloro-9-((2R,3R,4S)-3,4-dihydroxytetrahydrothiophen-2-yl)-9H-purine-6-ylamino)methyl)benzoic acid]	254 to 256.99 °C	–	–
OC1CS[C@@H](n2cnc3c(NCc4cccc(Cl)c4)ncnc32)C1O (stereo in doubt) [Example 12, (2R,3R,4S)-2-(6-(3-Chlorobenzylamino)-9H-purin-9-yl)tetrahydrothiophen-3,4-diol]	–	1.5 ± 0.4 nM	Ki [6]: 440 ± 110 nM; Ki [7]: 860 ± 210 nM
OC1CO[C@@H](n2cnc3c(NCc4cccc(Br)c4)nc(Cl)nc32)C1O (stereo in doubt) [Example 15, (2R,3R,4R)-2-(6-(3-Bromobenzylamino)-2-chloro-9H-purin-9-yl)tetrahydrofuran-3,4-diol]	181.5 to 181.7 °C	13 ± 6.9 nM	percentage of inflammation inhibition ([1]; 0.5% in DMSO:acetone (1:9)): 59%; binding affinity for hA3 AR (in words) [2]: high binding affinity and selectivity
O[C@@H]1[C@H](O)CS[C@H]1n1cnc2c(NCc3cccc(I)c3)nc(Cl)nc21 [Example 4, (2R,3R,4S)-2-(2-Chloro-6-(3-iodobenzylamino)-9H-purin-9-yl)tetrahydrothiophen-3,4-diol]	–	–	Ki [8]: 3.89 ± 1.15 nM
CNc1nc(Cl)nc2c1ncn2[C@@H]1SC[C@H](O)[C@@H]1O [Example 10, 2-(2-Chloro-6-methylamino-purin-9-yl)(2R,3S,4R)-tetrahydrothiophen-3,4-diol]	–	3.69 ± 0.25 nM	–

Second part, led by results:

melting point	Ki [2]	Compound	other results
183.2 to 183.5 °C	7.4 ± 1.3 nM	OC1CS[C@@H](n2cnc3c(NCc4cccc(F)c4)nc(Cl)nc32)C1O (stereo in doubt) [Example 1, (2R,3R,4S)-2-(2-Chloro-6-(3-fluorobenzylamino)-9H-purin-9-yl)tetrahydrothiophen-3,4-diol]	anti-inflammatory activity relative to Examples 2 to 4, on the basis of inhibition percentage [1]: four or more times that of the compounds of Examples 2 to 4
184 to 185 °C	8.99 ± 5.17 nM	OC1CS[C@@H](n2cnc3c(NCc4cccc(Br)c4)nc(Cl)nc32)C1O (stereo in doubt) [Example 3, (2R,3R,4S)-2-(2-Chloro-6-(3-bromobenzylamino)-9H-purin-9-yl)tetrahydrothiophen-3,4-diol]	–
188.8 to 189.8 °C	12.7 ± 3.7 nM	COc1ccc(Cl)cc1CNc1nc(Cl)nc2c1ncn2[C@@H]1SCC(O)C1O (stereo in doubt) [Example 6, (2R,3R,4S)-2-(2-Chloro-6-(5-chloro-2-methoxybenzylamino)-9H-purin-9-yl)tetrahydrothiophen-3,4-diol]	anti-inflammatory activity relative to Examples 2 to 4, on the basis of inhibition percentage [1]: four or more times that of the compounds of Examples 2 to 4; Ki [6]: 4020 ± 1750 nM
226.3 °C (dec.)	24.8 ± 8.1 nM	OC1CS[C@@H](n2cnc3c(NCc4cccc5ccccc45)nc(Cl)nc32)C1O (stereo in doubt) [Example 8, (2R,3R,4S)-2-(2-Chloro-6-(naphthalen-1-ylmethylamino)-9H-purin-9-yl)tetrahydrothiophen-3,4-diol]	percentage of inflammation inhibition [1, 9]: 53%
–	7.3 ± 0.6 nM	OC1CS[C@@H](n2cnc3c(NCc4cccc(F)c4)ncnc32)C1O (stereo in doubt) [Example 11, (2R,3R,4S)-2-(6-(3-fluorobenzylamino)-9H-purin-9-yl)tetrahydrothiophen-3,4-diol]	Ki [6]: 1260 ± 330 nM; Ki [7]: 1430 ± 420 nM
183 to 184 °C	6.8 ± 3.4 nM	OC1CS[C@@H](n2cnc3c(NCc4cccc(Br)c4)ncnc32)C1O (stereo in doubt) [Example 13, (2R,3R,4S)-2-(6-(3-bromobenzylamino)-9H-purin-9-yl)tetrahydrothiophen-3,4-diol]	Ki [6]: 420 ± 32 nM; Ki [7]: 790 ± 190 nM
198.8 to 199.8 °C	–	OC1CS[C@@H](n2cnc3c(NCc4cccc(I)c4)ncnc32)C1O (stereo in doubt) [Example 14, (2R,3R,4S)-2-(6-(3-Iodobenzylamino)-9H-purin-9-yl)tetrahydrothiophen-3,4-diol]	–
195.5 to 195.8 °C	42.9 ± 8.9 nM	OC1CO[C@@H](n2cnc3c(NCc4cccc(I)c4)nc(Cl)nc32)[C@H]1O (stereo partly drawn) [Example 16, (2R,3R,4R)-2-(6-(3-iodobenzylamino)-2-chloro-9H-purin-9-yl)tetrahydrofuro-3,4-diol]	percentage of inflammation inhibition ([1]; 0.5% in DMSO:acetone (1:9)): 79%; binding affinity for hA3 AR (in words) [2]: high binding affinity and selectivity
